# Laboratory results reported in patent US8519154B2, “Method for treatment of bronchial asthma” (Council of Scientific & Industrial Research, priority 2011, dated 2013).
# Legend:
# [1] = test system: BALB/c mice sensitized and challenged with ovalbumin (OVA); assay: Airway responsiveness to methacholine in mouse model of asthma; type: in vivo
# Procedure: Present invention describes the efficacy of compound I in vivo mouse model of asthma. BALB/c mice were sensitized and challenged with ovalbumin (OVA) as shown in scheme 2 to develop asthmatic features such as airway hyperreactivity (AHR) to methacholine (MCh).
# Mice were sensitized with 0.2 ml PBS containing 50 μg ovalbumin (OVA) (Sigma, USA) and 4 mg aluminum hydroxide in saline intraperitonially (i.p.) on days 0, 7 and 14 as shown in scheme 2. Sham group mice were sensitized with only alum dissolved in PBS. From day 21 to 30, mice were exposed to aerosol of OVA (3%) inhalation 25 minutes daily in a Plexiglas chamber (20×20×10 cm^3). The aerosol was generated by a nebulizer (OMRON CX, model) with an airflow rate of 9 L/minute. Sham group mice were challenged with PBS alone. […]
# Airway responsiveness was measured by barometric plethysmography using whole-body plethysmography (WBP; Buxco, Troy, N.Y.) 12 hours after last saline or ovalbumin challenge. […] Enhanced pause (Penh) to methacholine as measured using barometric plethysmography is a valid indicator of bronchoconstriction in mice and can be used to measure AHR. […] Readings were taken and averaged for 5 minutes from the starting time of nebulisation. Airway responsiveness to MCh was evaluated by the concentration of MCh required to increase the Pen H to twice the baseline value (MCh PC200).
# [2] = test system: mice (Balb/c); assay: 28 d sub-acute oral toxicity (OECD TG 407); type: in vivo; conditions: for Protein: normal 6-9; for SGOT: normal 19@25° C.; for Glucose: normal 55-130; for Bilirubin: normal <1.1; for SGPT: normal <22 @25° C.; for CMI DTH (% increase in paw vol): SRBC sensitized; for Total Ig IgG / Total Ig IgM: serum, ELISA; for % viability BM / % viability LN / % viability Spleen: trypan blue
# Procedure: (§1) The study was performed according to the guidelines laid in OECD TG 407. Young healthy adult mice (Balb/c) weighing between 28 to 35 g were employed and randomly assigned to the control and treatment groups and kept in their cages for at least five days prior to the start of the treatment to allow for acclimatisation to the laboratory conditions. 10 animals (five female and five male) were used at each dose level. Local standards of laboratory animal care were maintained. The temperature in the experimental animal room was maintained at 24° C.±3° C. and the relative humidity between 40 to 60% with 12 hours artificial light and 12 hours dark photoperiod. For feeding, conventional sterile pellet diets (Nay Chetan) with an unlimited supply of RO drinking water was given. A sample of the diet was retained until finalisation of the report. Animals were housed in small groups of 5 of the same sex.
# (§2) Blunt ended canula was used for gavaging. During the period of administration of Compound I, the animals are observed closely (30 minutes cage side observation), each day for signs of toxicity till the day of sacrifice. Weights of animals and measurements of food consumption were made once in a week.
# (§3) Experimental animals were sacrificed on day 29. Before sacrifice, blood was drawn from the retro-orbital sinus of mice with the help of heparinised capillary tubes and split in to two parts. Part taken in tubes containing EDTA was used for hematological studies with the help of Automatic Hematology Analyzer (Medonic). The other part was allowed to clot for 2 h and serum separated by centrifugation at 3000 rpm for 5 min, and subsequently used for clinical biochemistry and immunoglobuling profiling. Post sacrifice, the individual organs were dissected out, weighed and percentage relative organ weights determined. Spleen, lymphnode and bone marrow cell viability were judged by trypan blue dye exclusion test.
# (§4) The blood left after the hematological studies were allowed to clot for 2 h and serum separated by centrifugation at 3000 rpm for 5 min and subsequently used for clinical biochemistry. Details of the clinical biochemistry are given below in table II.
# (§5) Serum concentrations of total IgG and IgM were measured by ELISA and Cell mediated immunity was measured in terms of % increase in paw volume in mice sensitized with SRBC.
# (§6) Histopathology was carried out on vital organs by fixing organs in 10% buffered formalin saline for 72 h followed by washing, dehydrating and embedding on paraffin wax. Paraffin blocks were sectioned (4-5μ tick), deparaffinised and stained with hematoxylin and eosin for viewing and photography under microscope (Nikion, Japan). Histopathology was performed in the control and high dose groups unless mentioned otherwise.
# [3] = 28 d sub-acute oral toxicity (OECD TG 407); type: in vivo, mice; conditions: both sexes, Balb/c, mouse, in vivo; mice, 28 d oral
# Procedure: as §1, §2, §3, §4, §5, §6
# [4] = Solubility in water; type: physicochemical
smiles,measurement,setting,value
"COc1cc(C=O)cc2c1[nH]c1ccccc12 [Compound I, 1-methoxy-3-formyl-9H carbazole]",MChPC200 (airway hyper-responsiveness),"[1]; 0.1, 1 and 10 mg/kg orally twice per day",significantly attenuated the decrease in MChPC200
same,dose with maximum effect on MChPC200,[1]; orally twice per day,10 mg/kg
same,HGB,"[2]; 42 mg/kg, 28 d oral",9.47 ± 1.7 g/dL
same,PLT,"[2]; 42 mg/kg, 28 d oral",439 ± 76 × 10^3/mm^3
same,RBC,"[2]; 42 mg/kg, 28 d oral",7.29 ± 1.46 ×10^6/mm^3
same,WBC,"[2]; 42 mg/kg, 28 d oral",6.7 ± 1.2 10^3/mm^3
same,Protein,"[2]; 42 mg/kg, 28 d oral",7.93 ± 1.33 g/dL
same,SGOT,"[2]; 42 mg/kg, 28 d oral",15.51 ± 3.6 U/L
same,Glucose,"[2]; 42 mg/kg, 28 d oral",127 ± 17 mg/dL
same,Bilirubin,"[2]; 42 mg/kg, 28 d oral",0.74 ± 0.08 mg/dL
same,SGPT,"[2]; 42 mg/kg, 28 d oral",18.54 ± 2.1 U/L
same,CMI DTH (% increase in paw vol),"[2]; 47 mg/kg, 28 d oral",17.23 ± 4.4 % increase in paw vol
same,Total Ig IgG,"[2]; 47 mg/kg, 28 d oral",3.1 ± 0.85 mg/mL
same,Total Ig IgM,"[2]; 47 mg/kg, 28 d oral",1.48 ± 0.12
same,% viability BM,"[2]; 47 mg/kg, 28 d oral",97.3 ± 3.5%
same,% viability LN,"[2]; 47 mg/kg, 28 d oral",95.9 ± 5.4%
same,% viability Spleen,"[2]; 47 mg/kg, 28 d oral",96.8 ± 4.8%
same,glucose vs normal range,[2]; 93 mg/kg,marginally higher than the normal range
same,symptoms of toxicity,[2]; 93 mg/kg body weight,no symptoms of toxicity
same,HGB,"[2]; 93 mg/kg, 28 d oral",12.8 ± 2.4 g/dL
same,PLT,"[2]; 93 mg/kg, 28 d oral",426 ± 43 × 10^3/mm^3
same,RBC,"[2]; 93 mg/kg, 28 d oral",8.52 ± 1.4 ×10^6/mm^3
same,WBC,"[2]; 93 mg/kg, 28 d oral",5.9 ± 1.4 10^3/mm^3
same,CMI DTH (% increase in paw vol),"[2]; 93 mg/kg, 28 d oral",19.2 ± 6.3 % increase in paw vol
same,Protein,"[2]; 93 mg/kg, 28 d oral",8.73 ± 2.8 g/dL
same,SGOT,"[2]; 93 mg/kg, 28 d oral",12.9 ± 1.92 U/L
same,Glucose,"[2]; 93 mg/kg, 28 d oral",133 ± 13 mg/dL
same,Bilirubin,"[2]; 93 mg/kg, 28 d oral",0.17 ± 0.068 mg/dL
same,SGPT,"[2]; 93 mg/kg, 28 d oral",10.2 ± 2.9 U/L
same,Total Ig IgG,"[2]; 93 mg/kg, 28 d oral",3.6 ± 1.26 mg/mL
same,Total Ig IgM,"[2]; 93 mg/kg, 28 d oral",1.12 ± 0.33
same,% viability BM,"[2]; 93 mg/kg, 28 d oral",96.8 ± 4.6%
same,% viability LN,"[2]; 93 mg/kg, 28 d oral",96.5 ± 4.6%
same,% viability Spleen,"[2]; 93 mg/kg, 28 d oral",95.4 ± 5.3%
same,SGOT vs normal range,[2]; 187 mg/kg,marginally higher than the normal range
same,glucose level vs normal range,[2]; 187 mg/kg,much higher than the normal range
same,kidney histopathology,[2]; 187 mg/kg,sign of necrosis in the corticular region
same,signs of toxicity,[2]; 187 mg/kg,Few signs of toxicity
same,HGB,"[2]; 187 mg/kg, 28 d oral",13.2 ± 1.8 g/dL
same,PLT,"[2]; 187 mg/kg, 28 d oral",472 ± 65 × 10^3/mm^3
same,RBC,"[2]; 187 mg/kg, 28 d oral",8.6 ± 0.67 ×10^6/mm^3
same,WBC,"[2]; 187 mg/kg, 28 d oral",5.9 ± 4.1 10^3/mm^3
same,CMI DTH (% increase in paw vol),"[2]; 187 mg/kg, 28 d oral",17.4 ± 6.6 % increase in paw vol
same,Protein,"[2]; 187 mg/kg, 28 d oral",7.27 ± 0.85 g/dL
same,SGOT,"[2]; 187 mg/kg, 28 d oral",20.2 ± 0.85 U/L
same,Glucose,"[2]; 187 mg/kg, 28 d oral",183 ± 20 mg/dL
same,Bilirubin,"[2]; 187 mg/kg, 28 d oral",0.91 ± 0.057 mg/dL
same,SGPT,"[2]; 187 mg/kg, 28 d oral",15.83 ± 2.32 U/L
same,Total Ig IgG,"[2]; 187 mg/kg, 28 d oral",2.9 ± 0.56 mg/mL
same,Total Ig IgM,"[2]; 187 mg/kg, 28 d oral",1.04 ± 0.34
same,% viability BM,"[2]; 187 mg/kg, 28 d oral",94.67 ± 4.9%
same,% viability LN,"[2]; 187 mg/kg, 28 d oral",97.4 ± 3.9%
same,% viability Spleen,"[2]; 187 mg/kg, 28 d oral",98.4 ± 4.4%
same,DTH response vs sham treated control,[2]; SRBC sensitized mice,insignificant changes
same,acute oral LOAEL,"[2]; mice, 28 d oral",187 mg/kg
same,"viability of bone marrow cells, splenocyte and lymph node lymphocyte vs sham control",[2]; trypan blue dye exclusion test,No significant changes
same,NOAEL at 28 days,[3],93 mg/kg
same,solubility in water,[4],insoluble in water
